Tests used:
Cell viability assay = type: cell-based; details: human, MCF-10A normal mammary gland epithelial cells
[1] = test system: lung cancer (A-549) cell line; assay: cells; details: Homo sapiens, A549, read-out: Antiproliferative activity IC50 ± SEM, A-549
[2] = test system: breast cancer (MCF-7) cell line; assay: cells; details: Homo sapiens, MCF7, read-out: Antiproliferative activity IC50 ± SEM, MCF-7
[3] = test system: pancreatic cancer (Panc-1) cell line; assay: cells; details: Homo sapiens, PANC-1, read-out: Antiproliferative activity IC50 ± SEM, Panc-1
[4] = test system: colon cancer (HT-29) cell line; assay: cells; details: Homo sapiens, HT-29, read-out: Antiproliferative activity IC50 ± SEM, HT-29
[5] = test system: four cancer cell lines (A-549, MCF-7, Panc-1, HT-29); assay: Antiproliferative assay, average over the four cancer cell lines; details: for fold less potent than the reference Erlotinib (GI50): GI50 ratio vs Erlotinib
EGFR = EGFR (Homo sapiens, UniProt P00533); assay: EGFR inhibitory assay; type: biochemical
VEGFR-2 = VEGFR-2 (Homo sapiens, UniProt P35968); assay: VEGFR-2 inhibitory assay; type: biochemical; details: VEGFR-2 inhibition IC50 ± SEM
Caspase-3 = Caspase-3 activation assay; type: cell-based, human; details: A-594 cancer cell line; for Caspase-3 Fold change: vs untreated control cells
Caspase-8 = Caspase-8 level assay; type: cell-based, human; details: A-594 cancer cell line; for Caspase-8 Fold change: vs untreated control
Bax = Bax level assay; type: cell-based, human; details: A-594 cancer cell line; for Bax Fold change: vs untreated control
Bcl-2 = Bcl-2 level assay; type: cell-based, human; details: A-594 cancer cell line; for Bcl-2 Fold reduction: vs untreated control
[6] = test system: panel of four cancer cell lines; details: read-out: GI50 against four cancer cell lines; cited from earlier work

Sequence of VEGFR-2 (P35968 20-1356): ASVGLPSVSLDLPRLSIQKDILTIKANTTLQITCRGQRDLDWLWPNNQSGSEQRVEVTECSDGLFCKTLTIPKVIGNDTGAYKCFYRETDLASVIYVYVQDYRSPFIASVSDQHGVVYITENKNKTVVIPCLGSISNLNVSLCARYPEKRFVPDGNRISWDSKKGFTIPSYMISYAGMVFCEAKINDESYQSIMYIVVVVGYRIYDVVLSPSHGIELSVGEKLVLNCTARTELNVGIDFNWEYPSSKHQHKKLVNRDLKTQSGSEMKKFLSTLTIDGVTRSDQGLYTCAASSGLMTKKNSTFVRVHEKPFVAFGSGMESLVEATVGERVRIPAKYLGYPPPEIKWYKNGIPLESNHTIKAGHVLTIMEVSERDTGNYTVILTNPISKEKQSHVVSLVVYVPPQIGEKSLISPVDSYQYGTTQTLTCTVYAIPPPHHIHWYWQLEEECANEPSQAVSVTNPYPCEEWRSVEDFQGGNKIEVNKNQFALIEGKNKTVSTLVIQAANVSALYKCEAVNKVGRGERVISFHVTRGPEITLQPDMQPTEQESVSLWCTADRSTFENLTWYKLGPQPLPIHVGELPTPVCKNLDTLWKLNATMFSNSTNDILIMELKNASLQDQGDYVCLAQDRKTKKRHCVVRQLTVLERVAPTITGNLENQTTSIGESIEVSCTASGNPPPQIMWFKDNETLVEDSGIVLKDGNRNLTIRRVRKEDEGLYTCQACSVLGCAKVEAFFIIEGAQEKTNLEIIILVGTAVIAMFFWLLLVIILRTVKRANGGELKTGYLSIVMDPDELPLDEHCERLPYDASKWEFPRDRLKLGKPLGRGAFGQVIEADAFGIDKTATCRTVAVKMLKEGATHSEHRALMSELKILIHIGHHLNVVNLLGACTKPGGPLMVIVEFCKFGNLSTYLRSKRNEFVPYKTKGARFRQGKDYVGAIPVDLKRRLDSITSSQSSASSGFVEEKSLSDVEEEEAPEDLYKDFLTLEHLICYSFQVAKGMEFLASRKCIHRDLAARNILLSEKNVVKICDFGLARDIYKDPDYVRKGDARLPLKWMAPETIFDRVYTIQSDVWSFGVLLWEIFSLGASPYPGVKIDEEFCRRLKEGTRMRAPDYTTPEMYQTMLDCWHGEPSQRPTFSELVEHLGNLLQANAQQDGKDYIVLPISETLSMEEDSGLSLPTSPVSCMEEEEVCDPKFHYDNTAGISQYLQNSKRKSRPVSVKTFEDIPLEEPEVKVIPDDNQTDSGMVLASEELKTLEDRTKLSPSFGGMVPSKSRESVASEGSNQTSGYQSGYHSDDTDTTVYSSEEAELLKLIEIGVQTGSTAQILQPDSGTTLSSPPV
Sequence of EGFR (P00533 669-1210): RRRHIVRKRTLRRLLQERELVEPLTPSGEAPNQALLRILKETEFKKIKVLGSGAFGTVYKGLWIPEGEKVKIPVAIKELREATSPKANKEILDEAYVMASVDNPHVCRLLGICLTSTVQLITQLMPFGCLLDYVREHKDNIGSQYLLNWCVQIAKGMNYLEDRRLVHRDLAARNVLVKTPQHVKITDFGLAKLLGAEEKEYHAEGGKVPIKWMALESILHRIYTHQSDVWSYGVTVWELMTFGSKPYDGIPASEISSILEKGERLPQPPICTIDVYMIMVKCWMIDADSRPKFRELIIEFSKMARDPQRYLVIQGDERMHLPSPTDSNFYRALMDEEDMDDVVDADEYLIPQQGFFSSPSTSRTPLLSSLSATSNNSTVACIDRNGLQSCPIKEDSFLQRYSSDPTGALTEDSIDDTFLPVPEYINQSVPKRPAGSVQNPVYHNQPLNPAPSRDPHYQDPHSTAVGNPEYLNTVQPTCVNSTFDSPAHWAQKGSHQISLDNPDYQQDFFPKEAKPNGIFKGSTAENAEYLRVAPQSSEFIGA

Structure (SMILES)	IC50 [1] [nM]	IC50 [2] [nM]	IC50 [3] [nM]	IC50 [4] [nM]	fold less potent than the reference Erlotinib (GI50) [5] [fold]	fold less active than the 3-halo-substituted derivatives 7i and 7h (GI50) ([5]; GI50 ratio vs 7i and 7h) [fold]	IC50 (EGFR) [nM]	IC50 (VEGFR-2) [nM]	fold less potent than the 1-naphthyl derivative 7m (GI50) ([5]; GI50 ratio vs 7m) [fold]	viability at 4 days, 50 µM (Cell viability assay) [%]	Caspase-3 Conc (Caspase-3) [pg/mL]	Caspase-3 Fold change (Caspase-3)	Caspase-8 Conc (Caspase-8) [ng/mL]	Caspase-8 Fold change (Caspase-8)	Bax Conc (Bax) [pg/mL]	Bax Fold change (Bax)	Bcl-2 Conc (Bcl-2) [ng/mL]	Bcl-2 Fold reduction (Bcl-2)	GI50 [6] [nM]
c1ccc(-c2cn(Cc3nc(-c4ccccc4)no3)nn2)cc1 [Compound 7a, 3-Phenyl-5-[(4-phenyl-1H-1,2,3-triazol-1-yl)methyl]-1,2,4-oxadiazole]	94 ± 9	98 ± 9	96 ± 9	96 ± 9	3					90									
Fc1ccc(-c2noc(Cn3cc(-c4ccccc4)nn3)n2)cc1 [Compound 7b, 3-(4-Fluorophenyl)-5-[(4-phenyl-1H-1,2,3-triazol-1-yl)methyl]-1,2,4-oxadiazole]	102 ± 10	106 ± 10	104 ± 10	104 ± 10		2.5				91									
Clc1ccc(-c2noc(Cn3cc(-c4ccccc4)nn3)n2)cc1 [Compound 7c, 3-(4-Chlorophenyl)-5-[(4-phenyl-1H-1,2,3-triazol-1-yl)methyl]-1,2,4-oxadiazole]	87 ± 8	94 ± 9	90 ± 9	92 ± 9						89									
Brc1ccc(-c2noc(Cn3cc(-c4ccccc4)nn3)n2)cc1 [Compound 7d, 3-(4-Bromophenyl)-5-[(4-phenyl-1H-1,2,3-triazol-1-yl)methyl]-1,2,4-oxadiazole]	80 ± 8	84 ± 8	80 ± 8	82 ± 8						88									
Cc1ccc(-c2noc(Cn3cc(-c4ccccc4)nn3)n2)cc1 [Compound 7e, 3-(4-Methylphenyl)-5-[(4-phenyl-1H-1,2,3-triazol-1-yl)methyl]-1,2,4-oxadiazole]	98 ± 9	102 ± 9	100 ± 10	102 ± 10	3					91									
c1ccc(-c2cn(Cc3nc(-c4ccc5c(c4)OCO5)no3)nn2)cc1 [Compound 7o, 3-(2H-1,3-Benzodioxol-5-yl)-5-[(4-phenyl-1H-1,2,3-triazol-1-yl)methyl]-1,2,4-oxadiazole]	74 ± 7	80 ± 8	78 ± 7	76 ± 7						91									
CN[C@@H]1C[C@H]2O[C@@](C)([C@@H]1OC)n1c3ccccc3c3c4c(c5c6ccccc6n2c5c31)C(=O)NC4 [Staurosporine, reference compound]											465 ± 4				288		1.00		

Continued, in another order:

IC50 [1] [nM]	IC50 [2] [nM]	IC50 [3] [nM]	IC50 [4] [nM]	fold less potent than the reference Erlotinib (GI50) [5] [fold]	fold less active than the 3-halo-substituted derivatives 7i and 7h (GI50) ([5]; GI50 ratio vs 7i and 7h) [fold]	IC50 (EGFR) [nM]	IC50 (VEGFR-2) [nM]	fold less potent than the 1-naphthyl derivative 7m (GI50) ([5]; GI50 ratio vs 7m) [fold]	Structure (SMILES)	viability at 4 days, 50 µM (Cell viability assay) [%]	Caspase-3 Conc (Caspase-3) [pg/mL]	Caspase-3 Fold change (Caspase-3)	Caspase-8 Conc (Caspase-8) [ng/mL]	Caspase-8 Fold change (Caspase-8)	Bax Conc (Bax) [pg/mL]	Bax Fold change (Bax)	Bcl-2 Conc (Bcl-2) [ng/mL]	Bcl-2 Fold reduction (Bcl-2)	GI50 [6] [nM]
48 ± 4	51 ± 5	48 ± 4	46 ± 4						COc1ccc(-c2noc(Cn3cc(-c4ccccc4)nn3)n2)cc1 [Compound 7f, 3-(4-Methoxyphenyl)-5-[(4-phenyl-1H-1,2,3-triazol-1-yl)methyl]-1,2,4-oxadiazole]	90									
66 ± 6	68 ± 6	68 ± 6	66 ± 6						FC(F)(F)c1ccc(-c2noc(Cn3cc(-c4ccccc4)nn3)n2)cc1 [Compound 7g, 3-(4-Trifluoromethylphenyl)-5-[(4-phenyl-1H-1,2,3-triazol-1-yl)methyl]-1,2,4-oxadiazole]	87									
40 ± 4	44 ± 4	40 ± 4	42 ± 4			105 ± 10	6.9 ± 0.07		Clc1cccc(-c2noc(Cn3cc(-c4ccccc4)nn3)n2)c1 [Compound 7h, 3-(3-Chlorophenyl)-5-[(4-phenyl-1H-1,2,3-triazol-1-yl)methyl]-1,2,4-oxadiazole]	90									
36 ± 3	39 ± 3	37 ± 3	37 ± 3			97 ± 9	5.5 ± 0.05		Brc1cccc(-c2noc(Cn3cc(-c4ccccc4)nn3)n2)c1 [Compound 7i, 3-(3-Bromophenyl)-5-[(4-phenyl-1H-1,2,3-triazol-1-yl)methyl]-1,2,4-oxadiazole]	89									
33 ± 3	36 ± 3	34 ± 3	36 ± 3			89 ± 8	4.7 ± 0.04		Clc1ccc(-c2noc(Cn3cc(-c4ccccc4)nn3)n2)c(Cl)c1 [Compound 7j, 3-(2,4-Dichlorophenyl)-5-[(4-phenyl-1H-1,2,3-triazol-1-yl)methyl]-1,2,4-oxadiazole]	91	460 ± 4	7.0	2.00	22	291	32	0.95	5	
30 ± 3	35 ± 3	32 ± 3	32 ± 3			82 ± 7	3.8 ± 0.03		COc1ccc(-c2noc(Cn3cc(-c4ccccc4)nn3)n2)cc1OC [Compound 7k, 3-(3,4-Dimethoxyphenyl)-5-[(4-phenyl-1H-1,2,3-triazol-1-yl)methyl]-1,2,4-oxadiazole]	89	530 ± 5	8	2.30	25	310	34	0.80	6	
26 ± 2	30 ± 3	28 ± 2	28 ± 2				4.7		COc1cc(-c2noc(Cn3cc(-c4ccccc4)nn3)n2)cc(OC)c1OC [Compound 7l, 3-(3,4,5-Trimethoxyphenyl)-5-[(4-phenyl-1H-1,2,3-triazol-1-yl)methyl]-1,2,4-oxadiazole]	88	587 ± 5	9	2.55	28	362	40	0.60	8	
42 ± 4	48 ± 4	46 ± 4	44 ± 4	1.4					c1ccc(-c2cn(Cc3nc(-c4cccc5ccccc45)no3)nn2)cc1 [Compound 7m, 3-(Naphthalen-1-yl)-5-[(4-phenyl-1H-1,2,3-triazol-1-yl)methyl]-1,2,4-oxadiazole]	87									
68 ± 6	74 ± 7	70 ± 7	72 ± 7	2.4				1.7	c1ccc(-c2cn(Cc3nc(-c4ccc5ccccc5c4)no3)nn2)cc1 [Compound 7n, 3-(Naphthalen-2-yl)-5-[(4-phenyl-1H-1,2,3-triazol-1-yl)methyl]-1,2,4-oxadiazole]	89									
30 ± 3	40 ± 3	30 ± 3	30 ± 3						C#Cc1cccc(Nc2ncnc3cc(OCCOC)c(OCCOC)cc23)c1 [Erlotinib, reference compound]										33

— paper PMC10854447 (Journal of Enzyme Inhibition and Medicinal Chemistry, 2024)
